Source: US10183943B2, “Heterocyclic compounds and their use in preventing or treating bacterial infections” (MUTABILIS, priority 2015, dated 2019)

What was measured:
[1] = target: T1, OXA-11 (Pseudomonas aeruginosa, UniProt Q06778); experiment: β-lactamase inhibitory activity, determination of IC50 (nitrocefin hydrolysis); assay type: biochemical
T1 construct: made in house; host or cells: E. coli

[2] = target: AmpC P. aeruginosa (Pseudomonas aeruginosa, UniProt P24735); experiment: as above
[3] = target: T2, KPC-2 (Klebsiella pneumoniae, UniProt Q9F663); experiment: as above; assay type: biochemical; details: class (A); nitrocefin 200 μM, 30 min pre-incubation; read-out: IC50 β-lactamase KPC-2
T2 construct: made in house; host or cells: E. coli

[4] = target: T3, SHV-1 (Klebsiella pneumoniae, UniProt P0AD64); experiment: as above; assay type: biochemical
T3 construct: made in house; host or cells: E. coli

[5] = target: T4, OXA-48 (Klebsiella pneumoniae, UniProt Q6XEC0); experiment: as above; assay type: biochemical; details: class (D); nitrocefin 200 μM, 30 min pre-incubation; read-out: IC50 β-lactamase OXA-48
T4 construct: made in house; host or cells: E. coli

[6] = target: T5, CTX-M-15 (Escherichia coli, UniProt Q9EXV5); experiment: as above; assay type: biochemical; details: class (A); nitrocefin 200 μM, 30 min pre-incubation; read-out: IC50 β-lactamase CTX-M-15
T5 construct: made in house; host or cells: E. coli

[7] = target: T6, TEM-1 (Escherichia coli, UniProt P62593); experiment: as above; assay type: biochemical
T6 construct: made in house; host or cells: E. coli

[8] = target: T7, OXA-15 (Pseudomonas aeruginosa, UniProt Q51574); experiment: biochemical
T7 construct: made in house; host or cells: E. coli

[9] = target: AmpC (P99) (Enterobacter cloacae, UniProt P05364); experiment: β-lactamase inhibitory activity, determination of IC50 (nitrocefin hydrolysis)
[10] = target: T8, OXA-1 (Escherichia coli, UniProt P13661); experiment: as above; assay type: biochemical; details: class (D); nitrocefin 200 μM, 30 min pre-incubation; read-out: IC50 β-lactamase OXA-1
T8 construct: made in house; host or cells: E. coli

[11] = tested on: P. aeruginosa CIP107051 (TEM-24); experiment: MIC of compounds alone, broth microdilution; assay type: cell-based; details: Pseudomonas aeruginosa; strain CIP107051 (P. aeruginosa); read-out: MIC compounds of the invention alone
Method: (§1) Method 2: MIC of Compounds and Synergy with Ceftazidime Against Bacterial Isolates (Table 2 and 3)
(§2) Compounds of the present invention were assessed against genotyped bacterial strains alone or in combination with the β-lactam ceftazidime (CAZ). In the assays, MICs of said compounds, or of ceftazidime at fixed concentrations of said compounds were determined by the broth microdilution method according to the Clinical Laboratory Standards Institute (CLSI-M7-A7). Briefly, compounds alone according to the invention were prepared in DMSO and spotted (2 μL each) on sterile polystyrene plates (Corning, 3788). Compounds and ceftazidime dilutions were prepared in DMSO and spotted (1 μL each) on sterile polystyrene plates (Corning, 3788). Log phase bacterial suspensions were adjusted to a final density of 5×10^5 cfu/mL in cation-adjusted Mueller-Hinton broth (Becton-Dickinson) and added to each well (98 μL). Microplates were incubated for 16-20 h at 35° C. in ambient air. The MIC of the compounds was defined as the lowest concentration of said compounds that prevented bacterial growth as read by visual inspection. The MIC of ceftazidime at each compound concentration was defined as the lowest concentration of ceftazidime that prevented bacterial growth as read by visual inspection.

[12] = tested on: E. coli 131119 (TEM-1, OXA-48); experiment: MIC of compounds alone, broth microdilution; assay type: cell-based; details: Escherichia coli; strain 131119 (E. coli); read-out: MIC compounds of the invention alone
Method: as §1, §2

[13] = tested on: K. pneumoniae 6299 (TEM-1, SHV-11, OXA-163); experiment: MIC of compounds alone, broth microdilution; assay type: cell-based; details: Klebsiella pneumoniae; strain 6299 (K. pneumoniae); read-out: MIC compounds of the invention alone
Method: as §1, §2

[14] = tested on: E. coli 190317 (TEM-1, SHV-12, CTX-M-15, OXA-1); experiment: MIC of compounds alone, broth microdilution; assay type: cell-based; details: Escherichia coli, read-out: MIC compounds of the invention alone
Method: as §1, §2

[15] = tested on: E. coli RGN238 (OXA-1); experiment: MIC of compounds alone, broth microdilution; assay type: cell-based; details: Escherichia coli; strain RGN238 (E. coli); read-out: MIC compounds of the invention alone
Method: as §1, §2

[16] = tested on: K. pneumoniae BAA-1898 (TEM-1, SHV-11, SHV-12, KPC-2); experiment: MIC of compounds alone, broth microdilution; assay type: cell-based; details: Klebsiella pneumoniae, BAA1898; strain BAA-1898 (K. pneumoniae); read-out: MIC compounds of the invention alone
Method: as §1, §2

[17] = tested on: E. cloacae P99 (AmpC); experiment: MIC of compounds alone, broth microdilution; assay type: cell-based; details: Enterobacter cloacae; strain P99 (E. cloacae); read-out: MIC compounds of the invention alone
Method: as §1, §2

T4 sequence (Q6XEC0 23-265 limits assumed): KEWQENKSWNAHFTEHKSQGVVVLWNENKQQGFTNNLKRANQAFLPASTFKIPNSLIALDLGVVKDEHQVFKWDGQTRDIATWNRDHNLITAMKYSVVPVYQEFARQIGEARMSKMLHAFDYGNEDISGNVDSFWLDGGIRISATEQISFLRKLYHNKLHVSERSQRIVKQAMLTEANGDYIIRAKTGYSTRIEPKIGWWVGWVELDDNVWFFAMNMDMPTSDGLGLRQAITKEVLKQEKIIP
AmpC (P99), sequence (P05364 21-381): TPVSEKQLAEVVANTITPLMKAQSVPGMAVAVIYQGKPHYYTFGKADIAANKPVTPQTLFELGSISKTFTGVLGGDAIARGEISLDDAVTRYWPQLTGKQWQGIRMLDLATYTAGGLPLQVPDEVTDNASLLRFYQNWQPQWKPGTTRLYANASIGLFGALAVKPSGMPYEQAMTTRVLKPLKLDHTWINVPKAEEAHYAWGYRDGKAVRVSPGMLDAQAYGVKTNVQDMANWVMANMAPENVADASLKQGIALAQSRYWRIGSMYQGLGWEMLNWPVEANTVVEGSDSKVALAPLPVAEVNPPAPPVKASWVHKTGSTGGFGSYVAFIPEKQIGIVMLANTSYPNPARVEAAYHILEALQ
T1 sequence (Q06778 21-266): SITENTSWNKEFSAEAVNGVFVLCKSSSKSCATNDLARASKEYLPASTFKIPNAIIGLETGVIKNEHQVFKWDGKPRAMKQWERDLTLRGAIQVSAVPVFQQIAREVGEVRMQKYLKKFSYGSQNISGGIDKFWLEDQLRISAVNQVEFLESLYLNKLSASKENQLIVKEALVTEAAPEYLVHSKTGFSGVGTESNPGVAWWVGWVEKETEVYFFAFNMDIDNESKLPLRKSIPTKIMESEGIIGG
T6 sequence (P62593 24-286 limits assumed): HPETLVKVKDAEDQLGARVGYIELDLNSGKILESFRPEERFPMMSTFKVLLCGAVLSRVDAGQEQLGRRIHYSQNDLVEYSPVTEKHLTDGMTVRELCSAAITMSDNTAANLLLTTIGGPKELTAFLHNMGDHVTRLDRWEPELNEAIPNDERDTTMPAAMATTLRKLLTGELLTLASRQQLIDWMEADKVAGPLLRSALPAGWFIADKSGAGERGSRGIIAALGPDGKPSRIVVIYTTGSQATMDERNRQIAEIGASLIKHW
T3 sequence (P0AD64 22-286): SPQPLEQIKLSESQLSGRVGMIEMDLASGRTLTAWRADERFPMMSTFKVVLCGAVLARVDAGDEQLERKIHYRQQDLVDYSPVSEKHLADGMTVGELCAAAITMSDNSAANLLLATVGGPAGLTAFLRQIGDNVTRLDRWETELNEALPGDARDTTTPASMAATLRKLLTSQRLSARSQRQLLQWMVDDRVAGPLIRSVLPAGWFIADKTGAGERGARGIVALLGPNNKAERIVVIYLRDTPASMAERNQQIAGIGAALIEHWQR
T2 sequence (Q9F663 25-293 limits assumed): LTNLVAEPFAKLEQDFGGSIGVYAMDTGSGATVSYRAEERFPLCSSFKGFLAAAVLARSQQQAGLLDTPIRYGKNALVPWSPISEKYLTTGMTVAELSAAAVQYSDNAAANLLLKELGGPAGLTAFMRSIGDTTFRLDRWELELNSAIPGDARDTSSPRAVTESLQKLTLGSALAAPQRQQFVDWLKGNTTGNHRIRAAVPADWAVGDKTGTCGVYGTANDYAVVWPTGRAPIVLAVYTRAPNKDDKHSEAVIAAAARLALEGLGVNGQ
T8 sequence (P13661 26-276): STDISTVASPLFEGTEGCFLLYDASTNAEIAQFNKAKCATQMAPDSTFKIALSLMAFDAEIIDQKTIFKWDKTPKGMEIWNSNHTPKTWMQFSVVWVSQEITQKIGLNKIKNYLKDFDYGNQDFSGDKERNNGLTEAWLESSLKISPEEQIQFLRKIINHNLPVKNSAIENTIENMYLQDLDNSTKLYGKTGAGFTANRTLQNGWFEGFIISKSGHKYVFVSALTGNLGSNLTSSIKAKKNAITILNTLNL
T5 sequence (Q9EXV5 entry or part of it): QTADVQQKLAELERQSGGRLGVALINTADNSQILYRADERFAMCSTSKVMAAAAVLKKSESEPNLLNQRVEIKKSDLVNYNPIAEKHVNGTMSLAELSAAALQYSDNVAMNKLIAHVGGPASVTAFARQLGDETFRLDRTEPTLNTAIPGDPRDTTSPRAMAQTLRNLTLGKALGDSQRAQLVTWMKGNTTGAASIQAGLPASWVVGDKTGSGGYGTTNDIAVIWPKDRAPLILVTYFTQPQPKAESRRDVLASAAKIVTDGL
AmpC P. aeruginosa, sequence (P24735 27-397): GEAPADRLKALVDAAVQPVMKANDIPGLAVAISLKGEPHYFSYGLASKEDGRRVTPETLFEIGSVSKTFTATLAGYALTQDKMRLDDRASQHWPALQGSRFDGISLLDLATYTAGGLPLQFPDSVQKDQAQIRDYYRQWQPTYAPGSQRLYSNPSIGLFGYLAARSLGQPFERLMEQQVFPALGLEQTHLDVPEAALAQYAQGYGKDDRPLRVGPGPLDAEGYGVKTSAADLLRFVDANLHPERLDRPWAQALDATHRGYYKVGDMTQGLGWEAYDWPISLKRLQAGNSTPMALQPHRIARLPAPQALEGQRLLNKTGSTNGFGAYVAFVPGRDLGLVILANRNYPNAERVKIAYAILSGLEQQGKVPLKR
T7 sequence (Q51574 22-275): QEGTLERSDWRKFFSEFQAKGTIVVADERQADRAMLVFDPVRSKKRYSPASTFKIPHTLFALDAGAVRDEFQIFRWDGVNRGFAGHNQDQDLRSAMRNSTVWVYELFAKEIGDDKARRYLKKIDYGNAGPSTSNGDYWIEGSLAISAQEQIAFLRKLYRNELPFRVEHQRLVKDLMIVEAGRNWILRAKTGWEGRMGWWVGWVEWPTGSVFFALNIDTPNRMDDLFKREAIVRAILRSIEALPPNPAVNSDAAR

Row | Structure (SMILES) | IC50 [1] | IC50 [2] | IC50 [3] | IC50 [4] | IC50 [5] | IC50 [6] | IC50 [7] | IC50 [8] | IC50 [9] | IC50 [10] | MIC [11] | MIC [12] | MIC [13] | MIC [14] | MIC [15] | MIC [16] | MIC [17]
1 | Cn1cccc(C2=CCN3CC2N(OS(=O)(=O)[O-])C3=O)c1=O.[Na+] (stereo not drawn) [Example 16, Sodium [4-(N-methyl-2-oxo-3-pyridyl)-7-oxo-1,6-diazabicyclo[3.2.1]oct-3-en-6-yl] sulfate] | 7400 nM | 7100 nM | 4500 nM | 120 nM | 10 nM | 100 nM | 56 nM | 27 nM | 7300 nM | 720 nM | > 32 µg/mL | > 32 µg/mL | > 32 µg/mL | > 32 µg/mL | > 32 µg/mL | > 32 µg/mL | > 32 µg/mL
2 | Cn1nc(C2=CCN3CC2N(OS(=O)(=O)[O-])C3=O)ccc1=O.[Na+] (stereo not drawn) [Example 17, Sodium [4-(1-methyl-6-oxo-pyridazin-3-yl)-7-oxo-1,6-diazabicyclo[3.2.1]oct-3-en-6-yl] sulfate] | 1400 nM | 910 nM | 130 nM | 2.8 nM | 3.9 nM | 5.7 nM | 1.2 nM | 57 nM | 2300 nM | 330 nM | > 32 µg/mL | 16 µg/mL | > 32 µg/mL | 4 µg/mL | 32 µg/mL | > 32 µg/mL | 16 µg/mL
3 | Cn1c(C2=CCN3CC2N(OS(=O)(=O)[O-])C3=O)cccc1=O.[Na+] (stereo not drawn) [Example 18, Sodium [4-(N-methyl-6-oxo-2-pyridyl)-7-oxo-1,6-diazabicyclo[3.2.1]oct-3-en-6-yl] sulfate] | 540 nM | 2700 nM | 1800 nM | 11 nM | 20 nM | 17 nM | 2.7 nM | 14 nM | 230 nM | 35 nM | > 32 µg/mL | > 32 µg/mL | > 32 µg/mL | > 32 µg/mL | > 32 µg/mL | > 32 µg/mL | 16 µg/mL
4 | Cn1cnc(C2=CCN3CC2N(OS(=O)(=O)[O-])C3=O)cc1=O.[Na+] (stereo not drawn) [Example 20, Sodium [4-(N-methyl-6-oxo-pyrimidin-4-yl)-7-oxo-1,6-diazabicyclo[3.2.1]oct-3-en-6-yl] sulfate] | 430 nM | 3200 nM | 87 nM | 6.7 nM | 2.2 nM | 3.5 nM | 1 nM | 94 nM | 1900 nM | 1900 nM | > 32 µg/mL | 32 µg/mL | > 32 µg/mL | 8 µg/mL | > 32 µg/mL | > 32 µg/mL | 32 µg/mL
5 | Cn1cc(C2=CCN3CC2N(OS(=O)(=O)[O-])C3=O)c(=O)n(C)c1=O.[Na+] (stereo not drawn) [Example 23, Sodium [4-(1,3-dimethyluracil-5-yl)-7-oxo-1,6-diazabicyclo[3.2.1]oct-3-en-6-yl] sulfate] | 2200 nM | 1600 nM | 97 nM | 3.1 nM | 4.8 nM | 12 nM | 1.5 nM | 110 nM | 580 nM | 870 nM | > 32 µg/mL | 32 µg/mL | > 32 µg/mL | > 32 µg/mL | > 32 µg/mL | > 32 µg/mL | > 32 µg/mL
6 | COc1ncc(C2=CCN3CC2N(OS(=O)(=O)[O-])C3=O)cn1.[Na+] (stereo not drawn) [Example 24, Sodium [4-(2-methoxypyrimidin-5-yl)-7-oxo-1,6-diazabicyclo[3.2.1]oct-3-en-6-yl] sulfate] | 1200 nM | 1400 nM | 160 nM | 20 nM | 3.6 nM | 14 nM | 12 nM | 48 nM | 1100 nM | 380 nM | > 32 µg/mL | > 32 µg/mL | > 32 µg/mL | 16 µg/mL | > 32 µg/mL | > 32 µg/mL | > 32 µg/mL
